Series [1] deals with subjects undergoing opioid withdrawal. As to conditions: Fishman et al. 2019, cited from earlier work.
The procedure of series [2]:
This was an adaptive Phase Ib/2 trial design. It was a randomized, double-blind, placebo-controlled, multiple ascending dose study assessing efficacy, pharmacokinetics, safety and tolerability of dexmedetomidine hydrochloride dosing in adult (65 years old and older) males and females with acute agitation associated with dementia.
The drug film was retained in the sublingual cavity until dissolved. Participants were also evaluated for local irritation around the area where the film was placed. Efficacy and safety assessments were conducted periodically before and after dosing. The next cohort was dosed after completing accrual of most prior panels, in accord with regular ongoing periodic safety and PK review as eligible subjects were assigned, dosed, and data became available.
Blood samples (4 mL) were collected at 0.5, 1, 2, 4, 8- and 24-hours post-dose per Schedule of Events (Table 9A).
All pharmacokinetic parameters were calculated using non-compartmental analysis using WinNonlin. Actual sampling times were used in all pharmacokinetic analyses. […] Other PK analyses might be performed as appropriate.
Plasma samples were collected at 0.5, 1, 2, (2.5 in re-dose subjects), 4 and 8 hr.

The subject of another series is opioid withdrawal. On the procedure: (§1) • COWS and SOWS scores during Days 6-12. COWS and SOWS scores on Days 6-12 were analyzed using a mixed-effects, repeated-measures model. […] Kaplan-Meier estimates were used to generate survival curves for each treatment group. […] Differences in mean agitation and sedation were compared between the treatment groups using the same mixed-effects, repeated-measures model described above.
Kaplan-Meier estimates were also used to generate survival curves over time in each treatment group. Logistic regression model was used to compare the dexmedetomidine hydrochloride oromucosal film and placebo groups on the numbers of subjects dropping out after opioid discontinuation.

The procedure of series [3]: Blood samples (4 ml) were collected for pharmacokinetic analysis on inpatient Study Days 6 and 12 at 0, 2, 6, and 12 hours after the first dose of dexmedetomidine hydrochloride oromucosal film on Study Days 6 and 12.
Plasma concentration data for dexmedetomidine were analyzed by a popPK approach and reported separately. The plasma concentration data from this study were combined with PK data from other studies to develop the population PK model. The model was used to estimate exposure measures in subjects in this study through a modeling and simulation approach. • Interim data: The demographic data and baseline characteristics are given in Table 15C.
The source holds these as a separate data set.

Series [4] deals with elderly dementia patients.
Protocol: AEs, clinical laboratory tests, 12-lead ECG, Johns Hopkins Fall Risk Assessment score, and vital signs were monitored, and all observed and volunteered AEs were recorded. Blood pressure, heart rate and ECG were completed per schedule of assessments. Any abnormal clinically significant (investigator determined) vital sign measurement, clinical laboratory test, physical examination finding, or ECG parameter were repeated, until the value returned to baseline (or within normal limits) or the investigator deemed the abnormality to be of no clinical significance. Orthostatic assessments followed the CDC guidelines for the elderly (e.g. blood pressure upon standing for 1, 3 and 5 minutes). Safety and tolerability assessments were continued until the morning of Day 2 and Day 3 and were repeated on Day 7=2 days.
Safety was assessed during the study by the monitoring and recording of AEs, clinical laboratory test results (hematology, biochemistry, and urinalysis), vital sign measurements (systolic and diastolic blood pressures, heart rate measured as pulse, respiratory rate, and temperature), ECG, and physical examination findings.
Adverse events (AEs) were characterized by type, severity, seriousness, and relationship to treatment. Adverse events were coded by preferred term and system organ class using MedDRA version 20.0.
The test system of series [5] is opioid withdrawal symptoms. On the procedure:
as §1

Structures are written as SMILES. Where two headings read alike, the source gives them in different places.

For the compound `CC(Oc1c(Cl)cccc1Cl)C1=NCCN1` (stereo not drawn) [lofexidine], in series [1] (2.16 mg (N = 229)), the “Adverse Event Bradycardia” value is listed as 54 (24) n (%), the “Adverse Event Dizziness” value is given as 44 (19) n (%), the “Adverse Event Orthostatic hypotension” value was 67 (29) n (%) and the “Adverse Event Somnolence” value is given as 25 (10.9) n (%). In addition, in series [1] (2.88 mg (N = 229)), the “Adverse Event Bradycardia” value is listed as 70 (32) n (%), the “Adverse Event Dizziness” value is 51 (23.0) n (%), the “Adverse Event Orthostatic hypotension” value is given as 94 (42) n (%) and the “Adverse Event Somnolence” value is recorded as 29 (13.1) n (%).
`Cc1cccc([C@H](C)c2cnc[nH]2)c1C` [dexmedetomidine, (+) 4-(S)-[1-(2,3-dimethylphenyl)ethyl]-1H-imidazole]: the “exposure levels in elderly dementia patients vs schizophrenia patients” value in series [2] (Table 9E) was “higher exposure levels”. Further, in series [2] (same dose), the “AUC higher in dementia patients than in schizophrenia (and bipolar disorder) patients” value was “about 55%” and the “Cmax higher in dementia patients than in schizophrenia (and bipolar disorder) patients” value is “about 38%”. The retention rate entry with opioid withdrawal (Day 6, 120 μg dose) is given as “at least 40%”. In the series with opioid withdrawal (Day 6, 180 μg dose), the retention rate entry was “at least 50%”. For the same compound, the “plasma concentration as dose increased” value in series [3] (30 μg to 240 μg, days 6 and 12) was “dose dependent increases”. In addition, in series [3] (all doses), the “mean plasma concentrations between 2-hour and 12-hour timepoints” value is listed as “declined over time”. In addition, the “consequences of doses higher than about 90 μg” value in series [4] is “negative consequences”. Also, the “subjective rating of insomnia on SOWS scale” value in series [5] (Day 7, about 240 μg twice daily) was “significant reduction”. Besides, in series [5] (Day 8, about 240 μg twice daily), the “ratings of anxiety or irritability on COWS scale” value was “significant reduction”.

The values above are taken from patent US20250302808A1, “DEXMEDETOMIDINE TREATMENT REGIMENS” (BioXcel Therapeutics, Inc., priority 2021, published 2025).
